Measured values published in patent US20120270237A9, “METHODS FOR THE IDENTIFICATION OF KINASE INTERACTING MOLECULES AND FOR THE PURIFICATION OF KINASE PROTEINS” (Cellzone AG, priority 2009, published 2012).

What was measured:
Experiment in all cases: Kinobeads competition binding, HeLa Placenta lysate mix
Parameters in all cases: endogenous in cells
Conditions in all cases: 10 μM free compound
MAP3K5 = target: T1, MAP3K5 (Homo sapiens, UniProt Q99683)
T1 sequence (Q99683 1-1374): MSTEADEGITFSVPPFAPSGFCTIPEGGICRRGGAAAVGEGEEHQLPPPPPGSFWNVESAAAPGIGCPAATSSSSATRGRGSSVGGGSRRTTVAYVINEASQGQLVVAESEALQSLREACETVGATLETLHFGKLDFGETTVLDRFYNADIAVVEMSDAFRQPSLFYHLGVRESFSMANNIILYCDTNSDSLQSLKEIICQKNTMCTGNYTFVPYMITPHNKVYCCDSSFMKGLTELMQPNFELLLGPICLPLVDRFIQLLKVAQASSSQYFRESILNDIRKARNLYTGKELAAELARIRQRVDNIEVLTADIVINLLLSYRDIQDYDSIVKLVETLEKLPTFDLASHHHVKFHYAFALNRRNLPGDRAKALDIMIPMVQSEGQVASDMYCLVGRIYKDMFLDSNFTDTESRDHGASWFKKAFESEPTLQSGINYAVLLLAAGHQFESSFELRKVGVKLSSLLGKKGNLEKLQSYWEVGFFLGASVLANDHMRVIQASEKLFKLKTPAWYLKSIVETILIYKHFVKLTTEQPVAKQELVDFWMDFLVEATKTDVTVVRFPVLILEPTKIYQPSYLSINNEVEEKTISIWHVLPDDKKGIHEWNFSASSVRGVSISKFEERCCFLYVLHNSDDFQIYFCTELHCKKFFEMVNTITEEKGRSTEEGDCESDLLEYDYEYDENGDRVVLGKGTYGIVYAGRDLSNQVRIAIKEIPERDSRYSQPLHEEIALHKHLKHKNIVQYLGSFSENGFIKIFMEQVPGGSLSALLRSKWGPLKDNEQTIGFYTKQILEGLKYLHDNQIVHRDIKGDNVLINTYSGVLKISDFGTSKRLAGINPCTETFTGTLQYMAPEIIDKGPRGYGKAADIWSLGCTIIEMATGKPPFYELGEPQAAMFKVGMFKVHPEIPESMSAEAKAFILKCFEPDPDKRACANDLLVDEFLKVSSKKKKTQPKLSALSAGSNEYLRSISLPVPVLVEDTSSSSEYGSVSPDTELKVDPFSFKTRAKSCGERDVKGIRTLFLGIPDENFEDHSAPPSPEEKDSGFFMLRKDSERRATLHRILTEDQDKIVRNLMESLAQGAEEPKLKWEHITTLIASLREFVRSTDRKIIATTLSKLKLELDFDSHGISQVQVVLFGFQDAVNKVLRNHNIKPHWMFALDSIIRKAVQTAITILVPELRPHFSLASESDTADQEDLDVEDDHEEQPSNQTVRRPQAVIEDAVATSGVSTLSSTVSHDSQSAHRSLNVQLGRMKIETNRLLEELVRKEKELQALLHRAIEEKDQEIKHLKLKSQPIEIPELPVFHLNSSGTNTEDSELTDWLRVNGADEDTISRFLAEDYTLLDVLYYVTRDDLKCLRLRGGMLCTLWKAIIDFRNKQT
Experimental: (§1) To one aliquot of cell lysate 10 μM of the free compound (FIG. 3, CZC31326) was added and allowed to bind to proteins in the lysate. Then the affinity matrix with the immobilized compound was added to capture proteins that were not interacting with the previously added free compound. Beads were separated from the lysate and bead bound proteins were eluted in SDS sample buffer and subsequently separated by SDS-Polyacrylamide gel electrophoresis (FIG. 10). Suitable gel bands were cut out and subjected to in-gel proteolytic digestion with trypsin. The second lysate aliquot was processed identically, however no free compound was added (DMSO solvent control). Peptides originating from samples 1 and 2 were labeled with iTRAQ reagents (iTRAQ 114 and iTRAQ 117) and the combined samples were analyzed with a nano-flow liquid chromatography system coupled online to a tandem mass spectrometer (LC-MS/MS) experiment followed by iTRAQ reporter ion quantification in the MS/MS spectra as described in Example 2.

MARK2 = MARK2 (Homo sapiens, UniProt Q7KZI7)
Chain of MARK2 (Q7KZI7 whole entry): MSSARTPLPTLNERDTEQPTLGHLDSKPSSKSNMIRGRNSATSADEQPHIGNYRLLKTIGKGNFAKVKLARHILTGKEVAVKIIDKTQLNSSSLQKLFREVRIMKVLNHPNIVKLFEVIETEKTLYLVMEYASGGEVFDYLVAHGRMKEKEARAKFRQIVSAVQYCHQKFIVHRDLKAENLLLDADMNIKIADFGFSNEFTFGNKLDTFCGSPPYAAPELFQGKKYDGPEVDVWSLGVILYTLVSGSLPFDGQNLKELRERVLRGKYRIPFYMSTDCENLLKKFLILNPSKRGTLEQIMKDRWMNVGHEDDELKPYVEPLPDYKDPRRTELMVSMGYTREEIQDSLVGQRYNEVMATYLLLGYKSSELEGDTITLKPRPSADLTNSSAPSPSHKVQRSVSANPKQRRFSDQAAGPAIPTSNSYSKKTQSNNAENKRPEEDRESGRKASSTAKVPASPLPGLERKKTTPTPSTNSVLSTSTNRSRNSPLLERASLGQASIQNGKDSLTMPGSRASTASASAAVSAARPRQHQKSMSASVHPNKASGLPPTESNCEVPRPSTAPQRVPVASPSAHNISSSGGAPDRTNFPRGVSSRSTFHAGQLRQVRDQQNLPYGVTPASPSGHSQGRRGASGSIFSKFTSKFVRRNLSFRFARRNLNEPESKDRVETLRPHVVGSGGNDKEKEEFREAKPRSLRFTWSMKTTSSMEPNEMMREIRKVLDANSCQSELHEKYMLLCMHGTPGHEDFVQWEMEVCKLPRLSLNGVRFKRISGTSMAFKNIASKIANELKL
Experimental: as §1

NEK3 = target: T2, NEK3 (Homo sapiens, UniProt P51956)
T2 sequence (P51956 1-506): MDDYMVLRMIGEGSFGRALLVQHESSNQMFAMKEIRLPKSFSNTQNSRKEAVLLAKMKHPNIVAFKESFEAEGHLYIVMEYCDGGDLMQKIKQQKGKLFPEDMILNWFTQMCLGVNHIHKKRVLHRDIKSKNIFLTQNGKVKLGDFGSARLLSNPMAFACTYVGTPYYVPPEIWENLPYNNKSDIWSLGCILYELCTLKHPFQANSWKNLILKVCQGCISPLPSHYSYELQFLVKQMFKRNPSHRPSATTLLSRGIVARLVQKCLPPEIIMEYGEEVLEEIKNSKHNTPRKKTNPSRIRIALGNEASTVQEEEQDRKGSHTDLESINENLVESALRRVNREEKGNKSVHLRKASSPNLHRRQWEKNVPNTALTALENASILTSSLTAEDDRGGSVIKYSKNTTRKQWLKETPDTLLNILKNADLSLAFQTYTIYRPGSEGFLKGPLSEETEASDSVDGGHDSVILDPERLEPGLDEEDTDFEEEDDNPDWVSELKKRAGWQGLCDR
Experimental: as §1

SMILES: CS(=O)(=O)Nc1ccccc1Nc1nc(Nc2cccc(OCCN)c2)ncc1Cl [CZC31326, N-(2-(2-(3-(2-aminoethoxy)phenylamino)-5-chloropyrimidin-4-ylamino)phenyl)methanesulfonamide]
- inhibition at 10 µM (MAP3K5): 86%
- inhibition at 10 µM (MARK2): 93.7%
- inhibition at 10 µM (NEK3): 94.8%
